According to patent US20120165331A1, “Di/tri-aza-spiro-C9-C11alkanes” (priority 2010, published 2012):

Assays:
human orexin 1 receptor [1] = target: T1, human orexin 1 receptor (Homo sapiens, UniProt O43613); experiment: Radioligand binding assay ([3H]-SB649868 competition), human orexin 1 receptor; conditions: radioligand [3H]-SB649868; read-out: Binding hOx1R Kd
T1 construct: expressed in transfected cells
T1 sequence (O43613 1-425): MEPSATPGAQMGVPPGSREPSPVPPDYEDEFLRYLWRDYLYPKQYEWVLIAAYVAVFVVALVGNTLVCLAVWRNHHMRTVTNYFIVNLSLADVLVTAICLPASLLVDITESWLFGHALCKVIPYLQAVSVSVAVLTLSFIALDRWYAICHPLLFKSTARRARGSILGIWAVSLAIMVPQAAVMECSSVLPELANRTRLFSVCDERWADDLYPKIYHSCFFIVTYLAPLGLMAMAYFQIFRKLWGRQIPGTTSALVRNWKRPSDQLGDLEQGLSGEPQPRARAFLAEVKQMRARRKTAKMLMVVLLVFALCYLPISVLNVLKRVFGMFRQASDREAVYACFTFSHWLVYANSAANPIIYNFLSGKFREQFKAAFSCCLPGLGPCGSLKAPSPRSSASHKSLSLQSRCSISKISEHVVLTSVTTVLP
Outline: (§1)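 Membranes from CHO or HEK cells expressing the human receptor were incubated 1 h at room temperature with about 1 nM [3H]-SB649868 and test compound in HEPES pH 7.5 buffer with BSA, MgCl2, CaCl2 and tween. Non-specific binding defined with 10 μM almorexant; filtration read-out, values reported as Kd.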

human orexin 2 receptor [2] = target: T2, human orexin 2 receptor (Homo sapiens, UniProt O43614); experiment: Radioligand binding assay ([3H]-SB649868 competition), human orexin 2 receptor; conditions: radioligand [3H]-SB649868; read-out: Binding hOx2R Kd
T2 construct: expressed in transfected cells
T2 sequence (O43614 1-444): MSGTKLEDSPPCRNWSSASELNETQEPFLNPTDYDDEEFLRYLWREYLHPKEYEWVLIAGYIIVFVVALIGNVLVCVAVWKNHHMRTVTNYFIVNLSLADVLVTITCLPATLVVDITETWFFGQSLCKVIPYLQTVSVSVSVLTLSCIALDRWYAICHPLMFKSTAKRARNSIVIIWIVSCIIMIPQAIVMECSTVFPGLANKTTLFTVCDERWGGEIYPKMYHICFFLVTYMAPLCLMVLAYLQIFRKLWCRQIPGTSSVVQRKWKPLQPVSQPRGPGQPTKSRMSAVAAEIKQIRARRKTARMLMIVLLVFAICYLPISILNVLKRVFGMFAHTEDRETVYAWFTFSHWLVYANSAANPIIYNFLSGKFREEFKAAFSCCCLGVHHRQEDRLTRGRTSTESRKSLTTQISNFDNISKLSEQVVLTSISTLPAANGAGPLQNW
Outline: as §1

human orexin 1 receptor [3] = target: T1, human orexin 1 receptor; experiment: Calcium accumulation in cells (FLIPR), antagonism of orexin A, human orexin 1 receptor; type: cell-based; conditions: for Ki: calcium accumulation, antagonism of orexin A, Cheng-Prusoff corrected, read-out: FLIPR hOx1R Ki
human orexin 2 receptor [4] = target: T2, human orexin 2 receptor; experiment: Calcium accumulation in cells (FLIPR), antagonism of orexin A, human orexin 2 receptor; type: cell-based; conditions: calcium accumulation, antagonism of orexin A, Cheng-Prusoff corrected; read-out: FLIPR hOx2R Ki

Row | Compound | Kd (human orexin 1 receptor [1]) | Kd (human orexin 2 receptor [2]) | Ki (human orexin 1 receptor [3]) | Ki (human orexin 2 receptor [4]) | inhibition at 10 µM (human orexin 1 receptor [3]; measured at a concentration of 10 μM of compound, read-out: FLIPR hOx1R % inhibition)
1 | COc1ccc2[nH]cc(CN3CCOC4(CCN(c5nc(C)cc(C)n5)CC4)C3=O)c2c1 [Example 2.7, 9-(4,6-Dimethylpyrimidin-2-yl)-4-((5-methoxy-1H-indol-3-yl)methyl)-1-oxa-4,9-diazaspiro[5.5]undecan-5-one] | 213 nM | 6 nM | 258 nM | 1 nM | 
2 | Cc1ccnc(N2CCC3(CC2)OCCN(Cc2c[nH]c4ccccc24)C3=O)n1 [Example 2.8, 4-((1H-Indol-3-yl)methyl)-9-(4-methylpyrimidin-2-yl)-1-oxa-4,9-diazaspiro[5.5]undecan-5-one] | 5610 nM | 78 nM | 2460 nM | 105 nM | 
3 | Cc1cc(C)nc(N2CCC3(CC2)OCCN(Cc2ccccc2-c2nc(C)no2)C3=O)n1 [Example 2.10, 9-(4,6-Dimethylpyrimidin-2-yl)-4-(2-(3-methyl-1,2,4-oxadiazol-5-yl)benzyl)-1-oxa-4,9-diazaspiro[5.5]undecan-5-one] | 4610 nM | 144 nM |  | 72 nM | 35%
4 | Cc1cc(C)nc(N2CCC3(CC2)OCCN(Cc2nn(C)cc2-c2ccccc2)C3=O)n1 [Example 2.11, 9-(4,6-Dimethylpyrimidin-2-yl)-4-((1-methyl-4-phenyl-1H-pyrazol-3-yl)methyl)-1-oxa-4,9-diazaspiro[5.5]undecan-5-one] | 3180 nM | 229 nM | 2320 nM | 75 nM | 
5 | Cc1cc(C)nc(N2CCC3(CC2)OCCN(Cc2n[nH]cc2-c2ccccc2)C3=O)n1 [Example 2.13, 9-(4,6-Dimethylpyrimidin-2-yl)-4-((4-phenyl-1H-pyrazol-3-yl)methyl)-1-oxa-4,9-diazaspiro[5.5]undecan-5-one] | 1560 nM | 143 nM | 1500 nM | 38 nM | 
6 | COc1cccc(-c2n[nH]nc2CN2CCOC3(CCN(c4nc(C)cc(C)n4)CC3)C2=O)c1 [Example 2.17, 9-(4,6-Dimethylpyrimidin-2-yl)-4-((5-(3-methoxyphenyl)-2H-1,2,3-triazol-4-yl)methyl)-1-oxa-4,9-diazaspiro[5.5]undecan-5-one] | 363 nM | 16 nM | 220 nM | 1 nM | 
7 | COc1cc(C)nc(N2CCC3(CC2)OCCN(Cc2c[nH]c4ccccc24)C3=O)n1 [Example 2.18, 4-((1H-Indol-3-yl)methyl)-9-(4-methoxy-6-methylpyrimidin-2-yl)-1-oxa-4,9-diazaspiro[5.5]undecan-5-one] | 625 nM | 23 nM | 383 nM | 4 nM | 
8 | COc1cc(C)nc(N2CCC3(CC2)OCCN(Cc2c[nH]c4ncccc24)C3=O)n1 [Example 2.19, 4-((1H-Pyrrolo[2,3-b]pyridin-3-yl)methyl)-9-(4-methoxy-6-methylpyrimidin-2-yl)-1-oxa-4,9-diazaspiro[5.5]undecan-5-one] | 3520 nM | 184 nM | 1490 nM | 35 nM | 
9 | COc1cccc(-c2ocnc2CN2CCOC3(CCN(c4nc(C)cc(OC)n4)CC3)C2=O)c1 [Example 2.20, 9-(4-Methoxy-6-methylpyrimidin-2-yl)-4-((5-(3-methoxyphenyl)oxazol-4-yl)methyl)-1-oxa-4,9-diazaspiro[5.5]undecan-5-one] | 57 nM | 7 nM | 43 nM | 2 nM | 
10 | CCc1cc(C)nc(N2CCC3(CC2)OCCN(Cc2c[nH]c4ccccc24)C3=O)n1 [Example 2.23, 4-((1H-indol-3-yl)methyl)-9-(4-ethyl-6-methylpyrimidin-2-yl)-1-oxa-4,9-diazaspiro[5.5]undecan-5-one] | 1570 nM | 68 nM | 582 nM | 37 nM | 
11 | O=C1N(Cc2c[nH]c3ccccc23)CCC12CCN(c1cnc3ccccc3n1)CC2 [Example 3.2, 2-((1H-Indol-3-yl)methyl)-8-(quinoxalin-2-yl)-2,8-diazaspiro[4.5]decan-1-one] | 920 nM | 121 nM | 1060 nM | 41 nM | 
12 | COc1cc(C)nc(N2CCC3(CCN(Cc4ccccc4-c4nc(C)no4)C3=O)CC2)n1 [Example 3.20, 8-(4-Methoxy-6-methyl-pyrimidin-2-yl)-2-[2-(3-methyl-[1,2,4]oxadiazol-5-yl)-benzyl]-2,8-diaza-spiro[4.5]decan-1-one] | 7670 nM | 328 nM | 1640 nM | 43 nM | 
13 | COc1cc(C)nc(N2CCC3(CCN(Cc4nn(C)nc4-c4ccccc4)C3=O)C2)n1 (stereo not shown) [Example 5.43, 7-(4-methoxy-6-methylpyrimidin-2-yl)-2-((2-methyl-5-phenyl-2H-1,2,3-triazol-4-yl)methyl)-2,7-diazaspiro[4.4]nonan-1-one] | 339 nM | 118 nM | 421 nM | 29 nM | 
14 | COc1cc(C)nc(N2CCC3(CCN(Cc4nn(C)nc4-c4cccc(C)c4)C3=O)C2)n1 (stereo not shown) [Example 5.44, 7-(4-methoxy-6-methylpyrimidin-2-yl)-2-((2-methyl-5-(m-tolyl)-2H-1,2,3-triazol-4-yl)methyl)-2,7-diazaspiro[4.4]nonan-1-one] | 106 nM | 20 nM | 68 nM | 3.4 nM | 
15 | COc1cccc(-c2nn(C)nc2CN2CCC3(CCN(c4nc(C)cc(OC)n4)C3)C2=O)c1 (stereo not shown) [Example 5.45, 7-(4-methoxy-6-methylpyrimidin-2-yl)-2-((5-(3-methoxyphenyl)-2-methyl-2H-1,2,3-triazol-4-yl)methyl)-2,7-diazaspiro[4.4]nonan-1-one] | 97 nM | 21 nM | 29 nM | 2.8 nM | 
16 | CN(C)c1cc(C(F)(F)F)nc(N2CCC3(CCN(Cc4c[nH]c5ccccc45)C3=O)C2)n1 (stereo not shown) [Example 5.47, 2-((1H-indol-3-yl)methyl)-7-(4-(dimethylamino)-6-(trifluoromethyl)pyrimidin-2-yl)-2,7-diazaspiro[4.4]nonan-1-one] | 1030 nM | 518 nM | 193 nM | 97 nM | 
17 | COc1cc(C)nc(N2CCC3(CCCN(Cc4c[nH]c5ccccc45)C3=O)C2)n1 (stereo not shown) [Example 7.1, 7-((1H-Indol-3-yl)methyl)-2-(4-methoxy-6-methylpyrimidin-2-yl)-2,7-diazaspiro[4.5]decan-6-one] | 14 nM | 13 nM | 31 nM | 10 nM | 
18 | COc1ccnc(N2CCC3(CCCN(Cc4c[nH]c5ccccc45)C3=O)C2)n1 (stereo not shown) [Example 7.4, 7-((1H-Indol-3-yl)methyl)-2-(4-methoxypyrimidin-2-yl)-2,7-diazaspiro[4.5]decan-6-one] | 201 nM | 152 nM | 317 nM | 59 nM | 
19 | COc1cccc(-c2n[nH]nc2CN2CCCC3(CCN(c4nccc(OC)n4)C3)C2=O)c1 (stereo not shown) [Example 7.6, 7-((5-(3-Methoxyphenyl)-2H-1,2,3-triazol-4-yl)methyl)-2-(4-methoxypyrimidin-2-yl)-2,7-diazaspiro[4.5]decan-6-one] | 187 nM | 170 nM | 189 nM | 65 nM | 
20 | Cc1ccnc(N2CCC3(CCCN(Cc4c[nH]c5ccccc45)C3=O)C2)n1 (stereo not shown) [Example 7.11, 7-((1H-indol-3-yl)methyl)-2-(4-methylpyrimidin-2-yl)-2,7-diazaspiro[4.5]decan-6-one] | 89 nM | 73 nM | 304 nM | 38 nM | 
21 | COc1cc(C)nc(N2CCC3(CCCN(Cc4n[nH]c5ccccc45)C3=O)C2)n1 (stereo not shown) [Example 7.12, 7-((1H-indazol-3-yl)methyl)-2-(4-methoxy-6-methylpyrimidin-2-yl)-2,7-diazaspiro[4.5]decan-6-one] | 173 nM | 138 nM | 309 nM | 48 nM | 
22 | COc1cc(C)nc(N2CCC3(CCCN(Cc4ccccc4-c4nc(C)no4)C3=O)C2)n1 (stereo not shown) [Example 7.14, 2-(4-methoxy-6-methylpyrimidin-2-yl)-7-(2-(3-methyl-1,2,4-oxadiazol-5-yl)benzyl)-2,7-diazaspiro[4.5]decan-6-one] | 171 nM | 210 nM | 174 nM | 92 nM | 
